Experimental data published in publication PMC9081605, “A High-Throughput Toxicity Screen of 42 Per- and Polyfluoroalkyl Substances (PFAS) and Functional Assessment of Migration and Gene Expression in Human Placental Trophoblast Cells” (Frontiers in Toxicology, 2022).

Assays:
Assay type in all cases: cell-based, human
JEG-3 cells [1] = assay: CellTiter-Glo luminescent cell viability assay (HTTS); conditions: for Viability ↓, lowest concentration at which the mean response value exceeded the mean control value ± 2*SD (rough binning): decrease; for cell viability relative to vehicle control (rough binning): after 24 h, in at least one concentration
Text: (§1) JEG-3 human choriocarcinoma trophoblastic cells (American Type Culture Collection, VA, United States) were maintained in sterile-filtered Minimum Essential Media (MEM) supplemented with L-glutamine and phenol red (Thermo Fisher Scientific, MA, United States), 10% (v/v) heat-inactivated BenchMark Fetal Bovine Serum (Gemini Bio, CA, United States), 1% (v/v) sodium pyruvate (Thermo Fisher Scientific, MA, United States), and 1% (v/v) penicillin streptomycin (Sigma Aldrich, MO, United States). Cells were maintained in an incubator at 37°C with 5% CO2. JEG-3 cells were cultured in 10 cm tissue culture plates and cell passage numbers were recorded.
(§2) A total of 42 perfluoroalkyl substances (PFAS) were evaluated (Supplementary Table S1 contains source and purity). PFAS stock solutions were maintained in 100% methanol as previous work has shown certain PFAS degrade when stored in dimethyl sulfoxide (DMSO; [Gaballah et al., 2020]). […] The vehicle control group consisted of 97.5% media + 2.5% methanol to match the concentration of methanol in the media at the highest PFAS concentration tested (500 µM). Menadione (50–500 µM) was used as a positive control for cytotoxicity assessment. PFAS were de-identified and assigned random numbers to eliminate bias. Chemical exposure plate maps were designed so that all experimental conditions were tested in at least technical duplicates per plate. The outer edges of each plate received media alone and were excluded from all analyses to avoid edge effects. Each plate map included 14 technical replicates of the vehicle control group and 14 technical replicates of media only. Biological replicates were defined as separate 384 well plates tested on separate days using different cell passages. The experimental workflow is depicted in Supplementary Figure S1.
(§3) JEG-3 cells were counted using a Z2 Coulter Particle Counter (Beckman Coulter, CA, United States) and seeded at a density of 2,500 cells per well in black-walled, clear bottom 384 well plates (Corning, #3764) and allowed to adhere overnight. Approximately 24 h later, 384 well plates were imaged using an IncuCyte Zoom live cell imager (Essen BioScience Inc., MI, United States) to obtain baseline cellular confluence measurements prior to chemical dosing (0 h). Media was removed from wells and replaced with fresh media containing chemical treatments (exposure media) using a Viaflo liquid handling device (Integra Biosciences, NH, United States). Within 30 min of exposure media application, plates were again imaged for cellular confluence using the IncuCyte Zoom. Plates were incubated with exposure media for 24 h and then imaged again using the IncuCyte Zoom (24 h).
In the same plate evaluated for mitochondrial membrane potential, cell viability measures were duplexed using the CellTiter-Glo (CTG) Luminescent Cell Viability Assay (Promega, WI, United States). CTG reagent was added to each well at a volume of 20 µl. The plate was left at room temperature to incubate for 5 min and then 20 µl from each well was transferred to a low-volume, round-bottom, white 384 well plate (Corning, NY, United States). The CTG reagent lyses cellular and mitochondrial membranes and binds to adenosine triphosphate (ATP) released by cells, which produces a luminescence signal. The intensity of the luminescence was considered a proxy measure for the number of live cells in a well. The luminescence intensities were measured using the CLARIOstar plate reader.
HTTS data were analyzed using a custom data analysis script in R v 1.2.5019 ([R Core Team, 2019]). Briefly, raw data points corresponding to the confluence measurements at 0 and 24 h, the fluorescence intensities corresponding to MMP, and the relative luminescence units (RLU) corresponding to cell viability were imported directly from Microsoft Excel into the R programming environment, RStudio. Separate plates run on separate days using different JEG-3 passages were considered as biologic replicates. […]

JEG-3 cells [2] = assay: Mitochondrial membrane potential, JC-10 assay (HTTS)
Text: as §1, §2, §3
The JC-10 assay (Enzo Life Sciences, NY, United States) was used to evaluate mitochondrial membrane potential, the main bioenergetic parameter that regulates respiratory rate, ATP synthesis and reactive oxygen species generation. In cells with polarized mitochondrial membranes, the JC-10 dye localizes to the mitochondrial matrix and forms red fluorescent aggregates (540/590 nm). In cells with depolarized mitochondrial membranes, the JC-10 dye localizes in the cytoplasm and converts to a green fluorescent monomer (490/525 nm). Mitochondrial membrane potential was calculated as the ratio of the green and red fluorescence intensities within a well.
At the end of the 24 h exposure period, exposure media was removed from the plate. The plate wells were then washed with 1x phosphate buffered saline (1x PBS). After washing, the JC-10 reagent was suspended in fresh 1x PBS and 20 µl was added to each well at a final concentration of 20 μM (Enzo Life Sciences, NY, United States). The plate was incubated for 1 h at 37°C, and the fluorescence intensities at excitation/emission wavelengths of 490/525 nm and 540/590 nm were measured using a CLARIOstar (BMG Labtech, Offenburg, Germany) plate reader, respectively.
HTTS data were analyzed using a custom data analysis script in R v 1.2.5019 ([R Core Team, 2019]). […]

JEG-3 cells [3] = assay: Proliferation, change in confluence 0-24 h (IncuCyte Zoom, HTTS); conditions: for EC50: four-parameter fit, estimates meeting inclusion criteria; for cellular proliferation relative to vehicle control (rough binning): after 24 h, in at least one concentration
Text: as §1, §2, §3
Plate well bottom images were evaluated using automated cell masking. The automated cell masking program was developed using IncuCyte Zoom base software. Cell masking parameters were defined using a training set of JEG-3 cell images obtained prior to conducting the experiments and following IncuCyte Zoom software recommendations. Briefly, the training images were obtained from cell culture plates with varying levels of JEG-3 cellular confluence (ranging from ∼15% confluent to ∼95% confluent). Parameters for the automated cell masking were first manually set by an experimenter for 3-6 images of low (∼15–30%), medium (∼30–70%), and high confluence (∼70% or greater). The training images were then evaluated by the automated masking program and manually checked to ensure the parameters were sufficiently strict to ignore background (e.g., blank space on the plate well bottom) but adequately sensitive to detect cell borders. The masking program was then implemented on the experimental plates to obtain a baseline cellular confluence measurement at 0 h and a second confluence measurement at 24 h. […]

[4] = JEG-3 cells, 24 h exposure, four-parameter fit, estimates meeting inclusion criteria, read-out: Viability EC50 ± SD
[5] = JEG-3 cells, 24 h exposure, four-parameter fit, estimates meeting inclusion criteria, read-out: MMP EC50 ± SD
[6] = JEG-3 cells, 24 h exposure, read-out: Proliferation EC50 ± SD
[7] = Homo sapiens, JEG-3, 24 h, read-out: Viability EC50 ± SD, JEG-3 cells, 24 h exposure, four-parameter fit, estimates meeting inclusion criteria
[8] = Homo sapiens, JEG-3, 24 h, read-out: Proliferation EC50 ± SD, JEG-3 cells, 24 h exposure

Compound: O=C(O)C(F)(F)C(F)(F)C(F)(F)C(F)(F)C(F)(F)C(F)(F)C(F)(F)C(F)(F)C(F)(F)C(F)(F)F [Perfluoroundecanoic acid]
- Viability ↓, lowest concentration at which the mean response value exceeded the mean control value ± 2*SD (rough binning) (JEG-3 cells [1]; JEG-3 cells, 24 h): 300 µM
- EC50 (JEG-3 cells [1]; [4]): 266 ± 12.4 µM
- cell viability relative to vehicle control (rough binning) (JEG-3 cells [1]): reduced cell viability
- MMP ↓, lowest concentration at which the mean response value exceeded the mean control value ± 2*SD (rough binning) (JEG-3 cells [2]; JEG-3 cells, 24 h, decrease): 100 µM
- EC50 (JEG-3 cells [2]; [5]): 200 ± 4 µM
- MMP relative to vehicle control (rough binning) (JEG-3 cells [2]; after 24 h, in at least one concentration): reduced MMP
- Prolif ↓, lowest concentration at which the mean response value exceeded the mean control value ± 2*SD (rough binning) (JEG-3 cells [3]; JEG-3 cells, 24 h, decrease): 100 µM
- EC50 (JEG-3 cells [3]; [6]): 230 ± 13.3 µM
- cellular proliferation relative to vehicle control (rough binning) (JEG-3 cells [3]): reduced cellular proliferation

Compound: O=C(O)C(F)(F)C(F)(F)C(F)(F)C(F)(F)C(F)(F)C(F)(F)F [Perfluoroheptanoic acid]
- EC50 (JEG-3 cells [1]; [7]): 487 ± 409 µM
- minimal effective concentration (JEG-3 cells [3]; Homo sapiens, JEG-3, 24 h, read-out: Prolif ↓, lowest concentration at which the mean response value exceeded the mean control value ± 2*SD (rough binning)): 450 µM
- EC50 (JEG-3 cells [3]; [8]): 277 ± 81.6 µM
- cellular proliferation relative to vehicle control (rough binning) (JEG-3 cells [3]): reduced cellular proliferation

Compound: O=C(O)C(F)(F)C(F)(F)C(F)(F)C(F)(F)C(F)(F)C(F)(F)C(F)(F)C(F)(F)C(F)(F)C(F)(F)C(F)(F)F [Perfluorododecanoic acid]
- EC50 (JEG-3 cells [1]; [7]): 361 ± 30.8 µM
- Viability ↑, lowest concentration at which the mean response value exceeded the mean control value ± 2*SD (rough binning) (JEG-3 cells [1]; JEG-3 cells, 24 h, increase): 50 µM
- cell viability relative to vehicle control (rough binning) (JEG-3 cells [1]): increased cell viability
- EC50 (JEG-3 cells [3]; [8]): 318 ± 24.5 µM

Compound: 6:2 Fluorotelomer alcohol
- EC50 (JEG-3 cells [1]; [4]): 415 ± 70.6 µM
- EC50 (JEG-3 cells [2]; JEG-3 cells, 24 h, read-out: MMP EC50 ± SE): 95.1 ± 15.3 µM
- EC50 (JEG-3 cells [2]; [5]): 332 ± 44.1 µM

Compound: OCCC(F)(F)C(F)(F)C(F)(F)C(F)(F)C(F)(F)C(F)(F)C(F)(F)C(F)(F)F [8:2 Fluorotelomer alcohol]
- EC50 (JEG-3 cells [1]; [7]): 35.7 ± 36.5 µM
- EC50 (JEG-3 cells [1]; Homo sapiens, JEG-3, 24 h, read-out: viability EC50 ± SE, JEG-3 cells, 24 h): 36 ± 37 µM
- EC50 (JEG-3 cells [2]; Homo sapiens, JEG-3, 24 h, read-out: MMP EC50 ± SD, JEG-3 cells, 24 h exposure, four-parameter fit, estimates meeting inclusion criteria): 95.1 ± 15.3 µM

Compound: O=S(=O)([O-])C(F)(F)C(F)(F)C(F)(F)C(F)(F)C(F)(F)F.[Na+] [Sodium perfluoropentanesulfonate]
- Viability ↓, lowest concentration at which the mean response value exceeded the mean control value ± 2*SD (rough binning) (JEG-3 cells [1]; JEG-3 cells, 24 h): 350 µM
- EC50 (JEG-3 cells [1]; JEG-3 cells, raw model output including fits that did not meet inclusion criteria, read-out: Viability EC50 ± SD (raw values)): 1210 µM
- cell viability relative to vehicle control (rough binning) (JEG-3 cells [1]): reduced cell viability
- Prolif ↑, lowest concentration at which the mean response value exceeded the mean control value ± 2*SD (rough binning) (JEG-3 cells [3]; JEG-3 cells, 24 h, increase): 200 µM
- cellular proliferation relative to vehicle control (rough binning) (JEG-3 cells [3]): increased cellular proliferation

Compound: O=C(O)C(F)(F)C(F)(F)C(F)(F)C(F)F [5H-Octafluoropentanoic acid]
- EC50 (JEG-3 cells [1]; [4]): 354 ± 28.6 µM
- EC50 (JEG-3 cells [3]; [6]): 334 ± 56.5 µM
